From the kinase profiling compilation of Christmann-Franck et al. (2016)
Each block holds one compound with its values, some of them ahead of it.

How the values were obtained:
Test in all cases: Caliper, Mobility shift assay off-chip
AURKC (human) = AURKC (human) (UniProt Q9UQB9); settings: compound 10.0 µM
BRAF (human) = BRAF (human) (UniProt P15056); settings: compound 10.0 µM
CDC7 (human) = CDC7 (human) (UniProt O00311); settings: compound 10.0 µM
CDK4 (human) = CDK4 (human) (UniProt P11802); settings: compound 10.0 µM
CSNK1A1 (rat) = settings: compound 10.0 µM; accession and sequence are those of the human protein
CSNK2A1 (human) = CSNK2A1 (human) (UniProt P68400); settings: compound 10.0 µM
DYRK1A (rat) = settings: compound 10.0 µM; accession and sequence are those of the human protein
ERBB2 (human) = ERBB2 (human) (UniProt P04626); settings: compound 10.0 µM
MAP2K1 (rabbit) = settings: compound 10.0 µM; accession and sequence are those of the human protein
MAP3K14 (human) = MAP3K14 (human) (UniProt Q99558); settings: compound 10.0 µM
MAP3K8 (human) = MAP3K8 (human) (UniProt P41279); settings: compound 10.0 µM
MAPK1 (mouse) = settings: accession and sequence are those of the human protein
MARK4 (human) = MARK4 (human) (UniProt Q96L34); settings: compound 10.0 µM
NTRK3 (human) = NTRK3 (human) (UniProt Q16288); settings: compound 10.0 µM
PAK1 (human) = PAK1 (human) (UniProt Q13153); settings: compound 10.0 µM
PBK (human) = PBK (human) (UniProt Q96KB5); settings: compound 10.0 µM
PHKG1 (rabbit) = settings: compound 10.0 µM; accession and sequence are those of the human protein
PRKAA1 (human) = PRKAA1 (human) (UniProt Q13131); settings: compound 10.0 µM
PRKACA (cow) = settings: accession and sequence are those of the human protein
PRKDC (human) = PRKDC (human) (UniProt P78527); settings: compound 10.0 µM
[1] = tested on: RPS6KB1 (human), P23443 [T412E]; settings: compound 10.0 µM
SGK1 (human) = SGK1 (human) (UniProt O00141); settings: compound 10.0 µM
[2] = tested on: ABL1 (human), P00519 [M351T]
CLK2 (human) = CLK2 (human) (UniProt P49760)
MTOR (human) = MTOR (human) (UniProt P42345)
TXK (human) = TXK (human) (UniProt P42681)
ABL1 (mouse) = settings: compound 1.0 µM; accession and sequence are those of the human protein
ABL2 (mouse) = settings: compound 1.0 µM; accession and sequence are those of the human protein
CSNK1A1 (human) = CSNK1A1 (human) (UniProt P48729); settings: compound 1.0 µM
CSNK1A1 (yeast) = CSNK1A1 (yeast) (UniProt P48729); settings: compound 1.0 µM; accession and sequence are those of the human protein
LYN (mouse) = settings: compound 1.0 µM; accession and sequence are those of the human protein
MAPK3 (human) = MAPK3 (human) (UniProt P27361); settings: compound 1.0 µM
MYLK (human) = MYLK (human) (UniProt Q15746); settings: compound 1.0 µM
PIK3CB (human) = PIK3CB (human) (UniProt P42338); settings: compound 1.0 µM
PIK3CD (human) = PIK3CD (human) (UniProt O00329); settings: compound 1.0 µM
PIK3CG (human) = PIK3CG (human) (UniProt P48736); settings: compound 1.0 µM
MAP2K4 (mouse) = settings: compound 10.0 µM; accession and sequence are those of the human protein
TEC (human) = TEC (human) (UniProt P42680); settings: compound 10.0 µM
Sequence of TEC (human) (P42680 whole entry, looked up): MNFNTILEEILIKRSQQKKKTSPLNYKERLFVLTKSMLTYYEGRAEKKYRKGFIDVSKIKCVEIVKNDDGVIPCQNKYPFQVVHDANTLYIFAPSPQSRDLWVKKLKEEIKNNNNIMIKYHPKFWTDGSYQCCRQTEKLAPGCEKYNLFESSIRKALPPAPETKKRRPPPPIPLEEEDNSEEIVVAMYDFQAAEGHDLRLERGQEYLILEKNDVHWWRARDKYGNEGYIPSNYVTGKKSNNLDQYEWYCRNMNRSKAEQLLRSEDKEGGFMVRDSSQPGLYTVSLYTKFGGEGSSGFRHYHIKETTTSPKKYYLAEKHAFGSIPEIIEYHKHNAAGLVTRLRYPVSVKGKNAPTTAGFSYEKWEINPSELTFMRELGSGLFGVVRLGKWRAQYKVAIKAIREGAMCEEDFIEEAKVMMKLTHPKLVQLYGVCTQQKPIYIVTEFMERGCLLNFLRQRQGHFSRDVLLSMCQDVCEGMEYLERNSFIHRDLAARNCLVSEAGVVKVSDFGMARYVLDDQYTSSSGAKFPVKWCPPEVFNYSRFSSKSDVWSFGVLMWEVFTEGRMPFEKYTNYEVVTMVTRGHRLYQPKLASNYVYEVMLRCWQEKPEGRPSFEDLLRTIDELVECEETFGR

Sequence of TXK (human) (P42681 whole entry, looked up): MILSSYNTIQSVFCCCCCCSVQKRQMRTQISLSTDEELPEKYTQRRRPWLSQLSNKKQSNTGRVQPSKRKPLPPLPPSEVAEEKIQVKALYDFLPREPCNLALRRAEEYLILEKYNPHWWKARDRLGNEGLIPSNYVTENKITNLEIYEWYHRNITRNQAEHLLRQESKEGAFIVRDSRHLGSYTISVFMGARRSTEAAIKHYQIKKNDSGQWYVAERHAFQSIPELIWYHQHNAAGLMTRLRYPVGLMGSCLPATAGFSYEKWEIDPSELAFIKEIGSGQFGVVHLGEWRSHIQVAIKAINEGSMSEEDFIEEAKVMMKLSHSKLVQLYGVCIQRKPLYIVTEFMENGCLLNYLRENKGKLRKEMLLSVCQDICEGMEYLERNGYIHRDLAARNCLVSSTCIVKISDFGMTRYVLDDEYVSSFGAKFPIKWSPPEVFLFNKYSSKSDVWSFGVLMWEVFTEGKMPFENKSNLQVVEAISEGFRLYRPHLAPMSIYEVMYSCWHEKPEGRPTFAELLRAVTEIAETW
Sequence of CLK2 (human) (P49760 whole entry, looked up): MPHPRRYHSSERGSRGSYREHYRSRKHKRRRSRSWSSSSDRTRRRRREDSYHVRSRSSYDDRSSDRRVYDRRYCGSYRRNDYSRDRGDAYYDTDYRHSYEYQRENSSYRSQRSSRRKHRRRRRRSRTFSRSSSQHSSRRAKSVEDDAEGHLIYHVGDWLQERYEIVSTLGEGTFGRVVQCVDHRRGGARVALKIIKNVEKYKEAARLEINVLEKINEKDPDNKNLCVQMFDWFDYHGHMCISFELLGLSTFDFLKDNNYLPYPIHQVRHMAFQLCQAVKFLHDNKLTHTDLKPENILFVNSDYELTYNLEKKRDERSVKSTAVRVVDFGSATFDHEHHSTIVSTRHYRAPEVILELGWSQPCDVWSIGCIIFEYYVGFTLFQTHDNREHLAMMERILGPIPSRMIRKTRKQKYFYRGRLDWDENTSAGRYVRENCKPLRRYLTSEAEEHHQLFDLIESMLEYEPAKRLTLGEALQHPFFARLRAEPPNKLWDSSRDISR
Sequence of BRAF (human) (P15056 whole entry, looked up): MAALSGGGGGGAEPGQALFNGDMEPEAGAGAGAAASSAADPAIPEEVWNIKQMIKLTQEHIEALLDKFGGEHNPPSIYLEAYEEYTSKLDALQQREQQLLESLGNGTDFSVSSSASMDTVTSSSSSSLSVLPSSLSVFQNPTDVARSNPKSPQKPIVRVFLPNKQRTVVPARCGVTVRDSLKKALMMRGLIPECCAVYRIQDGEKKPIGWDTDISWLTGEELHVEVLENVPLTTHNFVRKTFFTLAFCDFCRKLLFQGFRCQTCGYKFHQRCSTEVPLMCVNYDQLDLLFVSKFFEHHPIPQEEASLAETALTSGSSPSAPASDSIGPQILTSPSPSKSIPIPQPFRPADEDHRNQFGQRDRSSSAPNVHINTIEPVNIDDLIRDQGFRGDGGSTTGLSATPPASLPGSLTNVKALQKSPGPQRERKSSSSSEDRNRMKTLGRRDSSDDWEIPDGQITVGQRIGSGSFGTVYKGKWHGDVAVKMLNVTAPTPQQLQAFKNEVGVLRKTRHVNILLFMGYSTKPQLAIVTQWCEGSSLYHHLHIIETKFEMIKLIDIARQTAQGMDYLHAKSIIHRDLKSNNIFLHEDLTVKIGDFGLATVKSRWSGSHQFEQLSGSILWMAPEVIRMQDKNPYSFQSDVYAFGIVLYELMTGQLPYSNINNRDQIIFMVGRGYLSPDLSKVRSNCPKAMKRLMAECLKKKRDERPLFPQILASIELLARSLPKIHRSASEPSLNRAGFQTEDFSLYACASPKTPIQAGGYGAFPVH
Sequence of CDC7 (human) (O00311 whole entry, looked up): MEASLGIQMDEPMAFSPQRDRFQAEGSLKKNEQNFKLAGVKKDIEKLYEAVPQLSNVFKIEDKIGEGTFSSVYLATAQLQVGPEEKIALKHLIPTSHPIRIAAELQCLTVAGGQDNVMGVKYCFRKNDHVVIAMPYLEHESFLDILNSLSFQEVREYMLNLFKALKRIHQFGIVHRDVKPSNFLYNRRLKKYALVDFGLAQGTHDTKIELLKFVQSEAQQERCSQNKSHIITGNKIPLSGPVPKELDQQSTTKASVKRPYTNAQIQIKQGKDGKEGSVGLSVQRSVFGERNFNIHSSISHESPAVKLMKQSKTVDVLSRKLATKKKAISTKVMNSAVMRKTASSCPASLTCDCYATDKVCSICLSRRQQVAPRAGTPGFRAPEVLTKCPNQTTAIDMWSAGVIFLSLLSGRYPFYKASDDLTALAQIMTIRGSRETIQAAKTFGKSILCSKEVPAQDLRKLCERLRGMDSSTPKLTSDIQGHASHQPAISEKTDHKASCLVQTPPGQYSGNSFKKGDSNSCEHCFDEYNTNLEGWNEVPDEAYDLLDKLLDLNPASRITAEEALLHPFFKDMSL
Sequence of MAPK3 (human) (P27361 whole entry, looked up): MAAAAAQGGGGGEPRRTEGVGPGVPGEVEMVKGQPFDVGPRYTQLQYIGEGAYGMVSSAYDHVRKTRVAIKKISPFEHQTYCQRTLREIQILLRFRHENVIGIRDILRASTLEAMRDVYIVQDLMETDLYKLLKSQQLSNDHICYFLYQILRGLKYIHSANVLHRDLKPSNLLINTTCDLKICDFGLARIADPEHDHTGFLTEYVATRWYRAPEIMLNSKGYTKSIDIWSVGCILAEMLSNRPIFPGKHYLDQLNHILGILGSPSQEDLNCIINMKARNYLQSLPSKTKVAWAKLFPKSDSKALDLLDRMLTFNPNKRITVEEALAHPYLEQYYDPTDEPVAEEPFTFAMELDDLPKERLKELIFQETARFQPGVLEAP
Sequence of PIK3CD (human) (O00329 whole entry, looked up): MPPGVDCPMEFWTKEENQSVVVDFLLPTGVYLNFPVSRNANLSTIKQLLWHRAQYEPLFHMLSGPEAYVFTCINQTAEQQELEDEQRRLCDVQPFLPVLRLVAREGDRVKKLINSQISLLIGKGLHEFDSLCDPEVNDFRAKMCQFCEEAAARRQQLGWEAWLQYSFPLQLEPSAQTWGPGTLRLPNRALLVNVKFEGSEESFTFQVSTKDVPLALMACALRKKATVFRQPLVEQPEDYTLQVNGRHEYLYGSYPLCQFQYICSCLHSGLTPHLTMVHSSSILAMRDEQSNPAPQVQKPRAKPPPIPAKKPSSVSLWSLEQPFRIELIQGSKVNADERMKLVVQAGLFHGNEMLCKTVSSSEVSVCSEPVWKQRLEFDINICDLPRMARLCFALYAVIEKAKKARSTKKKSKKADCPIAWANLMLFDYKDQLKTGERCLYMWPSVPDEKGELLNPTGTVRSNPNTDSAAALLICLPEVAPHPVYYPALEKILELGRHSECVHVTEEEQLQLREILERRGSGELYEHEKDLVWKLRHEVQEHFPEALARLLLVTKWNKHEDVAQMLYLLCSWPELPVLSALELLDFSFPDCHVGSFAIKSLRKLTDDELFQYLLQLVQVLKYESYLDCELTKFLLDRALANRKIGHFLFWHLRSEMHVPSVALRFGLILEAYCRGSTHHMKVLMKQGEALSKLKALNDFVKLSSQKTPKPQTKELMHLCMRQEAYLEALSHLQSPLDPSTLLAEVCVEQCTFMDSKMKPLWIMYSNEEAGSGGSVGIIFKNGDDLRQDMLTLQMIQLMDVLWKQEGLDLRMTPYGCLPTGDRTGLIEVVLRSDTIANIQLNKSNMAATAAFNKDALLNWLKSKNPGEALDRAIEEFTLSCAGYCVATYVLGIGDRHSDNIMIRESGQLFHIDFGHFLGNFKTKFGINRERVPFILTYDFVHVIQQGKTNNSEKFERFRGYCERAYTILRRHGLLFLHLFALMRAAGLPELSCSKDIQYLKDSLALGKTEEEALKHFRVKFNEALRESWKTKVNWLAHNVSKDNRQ
Sequence of AURKC (human) (Q9UQB9 whole entry, looked up): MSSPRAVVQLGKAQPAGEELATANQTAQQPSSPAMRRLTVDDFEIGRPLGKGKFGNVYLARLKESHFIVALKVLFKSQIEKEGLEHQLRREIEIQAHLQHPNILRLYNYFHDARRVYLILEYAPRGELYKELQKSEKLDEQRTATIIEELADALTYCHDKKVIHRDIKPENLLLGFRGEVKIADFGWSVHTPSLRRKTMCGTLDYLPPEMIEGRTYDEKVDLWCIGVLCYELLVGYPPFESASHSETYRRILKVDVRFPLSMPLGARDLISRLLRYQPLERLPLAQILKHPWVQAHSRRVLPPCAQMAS

residual activity (AURKC (human)): 4% | residual activity (BRAF (human)): 114% | residual activity (CDC7 (human)): 70% | residual activity (CDK4 (human)): 21% | residual activity (CSNK1A1 (rat)): 59% | residual activity (CSNK2A1 (human)): 71% | residual activity (DYRK1A (rat)): 64% | residual activity (ERBB2 (human)): 130% | residual activity (MAP2K1 (rabbit)): 30% | residual activity (MAP3K14 (human)): 92% | residual activity (MAP3K8 (human)): 87% | residual activity (MAPK1 (mouse); compound 10.0 µM): 11% | residual activity (MARK4 (human)): 25% | residual activity (NTRK3 (human)): 2% | residual activity (PAK1 (human)): 73% | residual activity (PBK (human)): 10% | residual activity (PHKG1 (rabbit)): 6% | residual activity (PRKAA1 (human)): 5% | residual activity (PRKACA (cow); compound 10.0 µM): 45% | residual activity (PRKDC (human)): 97% | residual activity [1]: 11% | residual activity (SGK1 (human)): 3%
SMILES: CC(C)(C)c1nc2c3ccc(F)cc3c3c(=O)[nH]ccc3c2[nH]1

residual activity ([2]; compound 1.0 µM): 50% | residual activity (CLK2 (human); compound 1.0 µM): 67% | residual activity (MTOR (human); compound 1.0 µM): 89% | residual activity (TXK (human); compound 1.0 µM): 84%
SMILES: C[C@@H](Nc1nc2c(C#CC3CC3)c[nH]c(=O)c2c2cc(-c3cn[nH]c3)ccc12)C(C)(C)C

residual activity (ABL1 (mouse)): 98% | residual activity (ABL2 (mouse)): 110% | residual activity (CSNK1A1 (human)): 111% | residual activity (CSNK1A1 (yeast)): 69% | residual activity (LYN (mouse)): 69% | residual activity (MAPK1 (mouse); compound 1.0 µM): 90% | residual activity (MAPK3 (human)): 89% | residual activity (MYLK (human)): 68% | residual activity (PIK3CB (human)): 100% | residual activity (PIK3CD (human)): 95% | residual activity (PIK3CG (human)): 116% | residual activity (PRKACA (cow); compound 1.0 µM): 81%
SMILES: Cc1n[nH]c2c1c(=O)n(CCCN)c1ccc(Cl)cc21

SMILES: O=C(N[C@@H](COc1ccc2[nH]c(=O)[nH]c2c1)c1ccccc1)c1cccn(Cc2ccc(F)c(F)c2)c1=O
residual activity ([2]; compound 10.0 µM): 110% | residual activity (CLK2 (human); compound 10.0 µM): 100% | residual activity (MAP2K4 (mouse)): 112% | residual activity (MTOR (human); compound 10.0 µM): 102% | residual activity (TEC (human)): 91% | residual activity (TXK (human); compound 10.0 µM): 138%
